Columns and labels:
M. avium [1] = assay: Intracellular growth of M. avium in human monocyte-derived macrophages (hMDM) in vitro, CFU assay; format: cell-based, Mycobacterium avium; conditions: for enhancement of the anti-mycobacterial effect of clarithromycin: compared to antibiotic alone
Protocol: A previously studied M. avium strain 13 (Hayashi, et al. (1999) Infect. Immun. 67:3558-3565; Meylan, et al. (1990) Infect. Immun. 58:2564-2568), isolated from an AIDS patient at UCSD, San Diego, Calif., was used in all experiments. The organism was cultured on Middlebrook 7H11 agar (Difco Laboratories, Detroit, Mich.) with OADC enrichment at 37° C. in the presence of 5% CO2 for two weeks. Transparent colonies were selectively picked and further cultured on Middlebrook 7H11 plates for two more weeks. The resulting colonies, which were predominantly transparent (>90%), were then collected and washed two times with phosphate-buffered saline (PBS). The bacteria were finally resuspended in Middlebrook 7H9 broth (Difco Laboratories) and the OD600 of the suspension was adjusted to 0.15-0.2. The suspension was aliquoted and stored at −70° C. until use. The number of organisms/ml of this suspension was determined by the colony forming unit (CFU) assay.
The number of CFU in a given sample was determined by colony counting as described previously (Ogata, et al. (1992) Infect. Immun. 60:4720-4725). Serial 10-fold dilutions of total cell lysates or tissue homogenates were performed in PBS. 10 μl of each dilution were plated on Middlebrook 7H11 plates supplemented with OADC enrichment. The plates were incubated up to 14 days at 37° C. The number of colonies was counted every alternate day from day 10 onwards until no new colonies appeared. This yielded the number of CFU/10 μl. The number of CFU in each well was then calculated.
Monocytes were isolated from normal human buffy coats obtained from the San Diego Blood Bank by Ficoll-Hypaque and Percoll gradient centrifugation (Hayashi, et al. (1997) Infect. Immun. 65:5262-5271). Purity of the monocytes by this method was greater than 70%. The monocytes thus isolated were cultured for five to seven days in Iscove's Modified Dulbecco's Medium (BioWhittaker, Walkersville, Md.) supplemented with 10% normal human serum (Irvine Scientific, Santa Ana, Calif.), 2 mM L-glutamine and 50 units/ml penicillin-streptomycin in Teflon beakers to yield human monocyte-derived macrophages (hMDM). These hMDM were further enriched by adherence to the wells of tissue culture plates before use in experiments. Purity of hMDM after the second adherence assessed by esterase staining was >95%. Viability determined by trypan blue exclusion was >97%.
hMDM (6×10^4) were, adhered to the wells of 96-well tissue culture plates for two hours and non-adherent cells were removed by washing with warm RPMI-1640. Adherent cells were treated with ISS at 3, 10, or 30 μg/ml for 72 h before infection with M. avium. Cells treated with M-ODN at 10 μg/ml or with media alone served as controls. After 72 h, the cells were washed two times and infected with M. avium in RPMI-1640 supplemented with 5% heat-inactivated fetal bovine serum (FBS, Irvine Scientific) at a cell:bacteria ratio of 1:5-1:10. On days 1, 3 and 7 after infection, the total number of colony forming units (CFU) in each well was determined. The supernatant was collected and set aside and the adherent cells were lysed. To account for all the mycobacteria in each well, corresponding lysates and supernatants were combined and used to determine the number of CFU. Experiments were done in triplicate and results were expressed as mean±SD of CFU per well.
Alternatively, 5×10^4 mBMDM or hMDM was treated with ISS for 3 days before infection. Macrophages treated with M-ODN or with media alone served as controls. After 3 days, the cells were infected for 2 hrs with M. avium at a macrophage:bacteria ratio of 2:1 for mBMDM or of 1:10 for hMDM, and subsequently cultured in fresh media without antibiotics. To examine attachment and/or invasion of M. avium, the macrophages were lysed immediately after washing, and the number of bacteria were enumerated by the CFU assay. Intracellular growth of M. avium was determined on days 1, 3, and 7 after infection. […]

M. avium [2] = assay: Growth of M. avium in vivo in C57B1/6 mice, CFU per organ; parameters: species or system Mycobacterium avium; conditions: for viable bacteria in the lungs: week 2
IFN-γ = assay: Serum IFN-γ by ELISA in mice; format: in vivo
Protocol: Serum obtained from M. avium-infected mice that received ISS or PBS was assayed for IFN-γ and IL-12 by ELISA using mouse IFN-γ and IL-12 (p70) ELISA kits (Endogen, Inc. Woburn, […]), respectively, and following the manufacturer's instructions.

[3] = tested on: IFN-γ producing CD4+ and CD8+ T cells; assay: Intracellular IFN-γ staining and secreted IFN-γ ELISA of re-stimulated splenocytes from M. avium-infected mice; format: in vivo; conditions: ISS 50 μg/mouse; 10^7 organisms/mouse; three weeks post-infection; anti-CD3/anti-CD28 re-stimulation
Protocol: Mice were injected intradermally (i.d.) with ISS (50 μg/mouse). The control mice received M-ODN (50 μg/mouse) or PBS (50 μl/mouse). All mice were infected with 1×10^7 M. avium. Three weeks after infection, the mice were sacrificed and splenocytes from mice receiving the same treatment were pooled. Intracellular cytokine staining was performed using the Cytofix/Cytoperm kit (Pharmingen) according to the manufacturer's instructions. Briefly, the splenocytes were stimulated with anti-CD3 and anti-CD28 activating antibodies in the presence of monensin to allow intracellular IFN-γ to accumulate for 6 hrs. Next, surface CD4 and CD8 were stained for, the cells were fixed, and the plasma membranes were permeabilized, allowing for intracellular staining with anti-IFN-γ. The cells were analyzed on a FACSCalibur flow cytometer (Becton Dickenson). To study IFN-γ production, splenocytes were incubated with anti-CD3 and anti-CD28 antibodies in vitro for 24 hrs, and these supernatants were assayed for the presence of IFN-γ by sandwich ELISA (Martin-Orozco, et al. (1999) Int. Immun. 11:1111-1118).

[4] = ISS 3 days before i.v. infection, 10^7 organisms/mouse, four weeks after infection, vs M-ODN and PBS mice
[5] = other experiments, data not shown

## 5′-TGACTGTGAACGTTCGAGATGA-3′ (SEQ ID NO:1) [ISS]
M. avium [1]; established infection, infected hMDM treated with ISS 10 μg/ml for 7 days
  decrease of intracellular growth of M. avium: 53%
M. avium [1]; hMDM (5×10^4/well) treated 3 days before infection, 7 days post-infection (FIG. 4A)
  inhibition of intracellular growth of M. avium: 91%
M. avium [1]; hMDM pretreated 72 h with 3 μg/ml ISS before infection, day 7, vs medium alone or M-ODN
  inhibition of intracellular growth of M. avium: 91.3±1.7%
M. avium [1]; hMDM pretreated with 10 or 30 μg/ml vs 3 μg/ml ISS
  growth inhibition at the higher concentrations of ISS tested: no further increase in growth inhibition
M. avium [1]; hMDM, ISS (10 µg/mL) immediately after infection (0 day), CFU at day 7, vs medium alone
  inhibition of growth of M. avium: 53±18%
M. avium [1]; hMDM, ISS (10 µg/mL) one day after infection (+1 day), CFU at day 7, vs medium alone
  inhibition of growth of M. avium: 36±16%
M. avium [1]; hMDM, ISS (10 µg/mL) pretreatment three days before infection (−3 days), CFU at day 7, vs medium alone
  inhibition of intracellular growth of M. avium: 51±4%
M. avium [1]; infected hMDM, ISS 10 μg/ml alone, day 7
  inhibition of intracellular growth of M. avium: 38±7%
M. avium [1]; infected hMDM, ISS 10 μg/ml with 1 μg/ml clarithromycin, day 7
  enhancement of the anti-mycobacterial effect of clarithromycin: 89±5%
M. avium [1]; infected hMDM, ISS 10 μg/ml with 4 μg/ml clarithromycin, day 7
  enhancement of the anti-mycobacterial effect of clarithromycin: 63±12%
M. avium [2]; C57B1/6 mice, 10^7 CFU i.v., ISS-ODN 50 μg/mouse alone one week after infection, 5 weeks after infection
  growth of M. avium in the therapeutic model: did not inhibit the growth of M. avium
M. avium [2]; ISS 100 μg/mouse i.d. 3 days before infection, 10^6 organisms/mouse, vs PBS
  viable bacteria in the lungs: significantly lower number of viable bacteria
M. avium [2]; [4]
  difference of CFU in the lungs, controls vs ISS-treated mice: 1 log
  difference of CFU in the spleen, controls vs ISS-treated mice: 2 logs
M. avium [2]; ISS i.d. 3 days before infection, 10^6 organisms/mouse, vs PBS, effects maximal at 4 weeks
  number of bacteria in the spleen: almost two logs lower number of bacteria
M. avium [2]; ISS pretreatment, 10^6 organisms/mouse, week 6, vs PBS
  CFU in the spleen: equaled that observed in the control mice
M. avium [2]; ISS pretreatment, 10^6 organisms/mouse, week 6, vs control mice
  bacterial load in the lungs: exceeded that found in the lungs of control mice
M. avium [2]; ISS pretreatment, 10^6 organisms/mouse, weeks 2, 4, 6, vs PBS
  bacterial loads in the liver: no significant difference
M. avium [2]; ISS prior to infection, 10^7 organisms/mouse, 4 weeks, vs PBS
  bacteria in the spleen: nearly two logs less bacteria
M. avium [2]; ISS prior to infection, 10^7 organisms/mouse, 6 weeks, vs control
  splenic CFU counts: similar
M. avium [2]; ISS prior to infection, 10^7 organisms/mouse, vs PBS
  viable bacteria in the lungs: significantly lower number of viable bacteria
M. avium [2]; ISS prior to infection, 10^7 organisms/mouse, weeks 2, 4, 6, vs PBS
  mycobacterial loads in the liver: no significant difference
M. avium [2]; single injection of ISS, 10^6 organisms/mouse
  persistence of the protective effect after administration: up to four weeks
IFN-γ; M. avium-infected mice (10^6 organisms/mouse), 2, 4, 6 weeks, ISS-pretreated vs PBS-pretreated
  serum IFN-γ levels: no significant differences
IFN-γ; [5]
  time for serum IFN-γ to attain basal levels post injection: ≤ 3 weeks
  time of peak serum level of IFN-γ after administration: 1 days
[3]
  frequency of infection-specific IFN-γ positive CD4+ or CD8+ T cells: did not further increase

Reference: patent US6552006B2, “Immunomodulatory polynucleotides in treatment of an infection by an intracellular pathogen” (The Regents of the University of California, priority 2000, dated 2003)
